From patent US20130280169A1, “CENTRAL NERVOUS SYSTEM TISSUE-LABELING COMPOSITION, METHOD FOR LABELING CENTRAL NERVOUS SYSTEM TISSUE, AND SCREENING METHOD USING CENTRAL NERVOUS SYSTEM TISSUE-LABELING COMPOSITION” (CANON KABUSHIKI KAISHA, priority 2009, published 2013)

System: not listed separately
Test: Excitation and fluorescence wavelength by FL4500 fluorescence spectrophotometer
Conditions: 5 μM chloroform solution (Examples 30 to 34)

Excitation wavelength λex	Fluorescence wavelength λem	Molecule
547	592	O=C1c2ccccc2-c2cc(=O)n(C3CCCCC3)c3ccc(NC4CCCCC4)c1c23 [Compound 29]
548	575	CCCCn1c(=O)cc2c3c(c(NC4CCCCC4)ccc31)C(=O)c1ccccc1-2 [Compound 30]
547	574	CCCCC(CC)CNc1ccc2c3c(cc(=O)n2CCCC)-c2ccccc2C(=O)c13 (stereo not drawn) [Compound 31]
544	573	CCCCn1c(=O)cc2c3c(c(NCCC4=CCCCC4)ccc31)C(=O)c1ccccc1-2 [Compound 32]
544	573	CCCCOCCCNc1ccc2c3c(cc(=O)n2CCCC)-c2ccccc2C(=O)c13 [Compound 33]

Same assay, conditions: 5 ηM DMSO solution (Examples 35 to 46)

Excitation wavelength λex	Fluorescence wavelength λem	Molecule
474	590	O=C(O)CCN1C(=O)/C(=C\c2cc(Br)c3c(c2)C2CCCC2N3c2ccc(Br)cc2)SC1=S (stereo not drawn) [Compound 34]
521	634	COc1ccc(N2c3ccc(/C=C4/SC(=S)N(CCC(=O)O)C4=O)cc3C3CCCC32)cc1 (stereo not drawn) [Compound 35]
510	584	O=C(O)CCN1C(=O)/C(=C\c2ccc3c(c2)C2CCCC2N3Cc2ccccc2)SC1=S (stereo not drawn) [Compound 36]
519	592	CCCN1c2ccc(/C=C3/SC(=S)N(CCC(=O)O)C3=O)cc2C2CCCC21 (stereo not drawn) [Compound 42]

Second part, the molecule before the results:

Molecule	Excitation wavelength λex	Fluorescence wavelength λem
O=C(O)CCN1C(=O)/C(=C\c2ccc3c(c2)C2CCCC2N3c2ccccc2)SC1=S (stereo not drawn) [Compound 37]	502	604
COc1ccc2cc(N3c4ccc(/C=C5/SC(=S)N(CCC(=O)O)C5=O)cc4C4CCCC43)ccc2c1 (stereo not drawn) [Compound 38]	521	646
CN1c2ccc(/C=C3/SC(=S)N(CCC(=O)O)C3=O)cc2C2CCCC21 (stereo not drawn) [Compound 39]	517	590
CCN1c2ccc(/C=C3/SC(=S)N(CCC(=O)O)C3=O)cc2CC1C (stereo not drawn) [Compound 40]	509	593
CCn1c2ccccc2c2cc(/C=C3/SC(=S)N(CCC(=O)O)C3=O)ccc21 [Compound 41]	452	540
CCN1c2ccc(/C=C/C=C3/SC(=S)N(CCC(=O)O)C3=O)cc2C2CCCC21 (stereo not drawn) [Compound 43]	564	671
CSc1ccc(N2c3ccc(/C=C4/SC(=S)N(CCC(=O)O)C4=O)cc3C3CCCC32)cc1 (stereo not drawn) [Compound 44]	518	647
CCN1CCc2cc(/C=C3/SC(=S)N(CCC(=O)O)C3=O)ccc21 [Compound 45]	510	597

Same assay, conditions: aqueous solution, 10 mg/mL DMSO solution diluted 500-fold with distilled water

λem	λex	Molecule
556	480	Cn1c(=O)cc2c3c(c(NCc4ccccc4)ccc31)C(=O)c1ccccc1-2 [(9)]
551	466	CCCCNc1ccc2c3c(cccc13)C(=O)N(CCCC)C2=O [(12)]
604	576	CCN1c2ccc(/C=C3/SC(=S)N(CCC(=O)O)C3=O)cc2C2CCCC21 (stereo not drawn) [(13)]
560	530	CCN1C(=S)N(c2ccccc2)C(=O)/C1=C/C=C1/Sc2ccccc2N1CC [(14)]

The remaining lines, values behind:

Molecule	λem	λex
Cn1c(=O)cc2c3c(c(NC4CCCCC4)ccc31)C(=O)c1ccccc1-2 [(8)]	619	599
CCN(CC)c1ccc2cc3c(oc2c1)c(C#N)c(=N)n1c2ccccc2nc31 [(10)]	577	556
CCN(CC)c1ccc2cc3c(oc2c1)c(C#N)c(=O)n1c2ccccc2nc31 [(11)]	576	555

Same assay, conditions: aqueous solution, 10 mg/mL DMSO solution diluted 500-fold with distilled water (Table 2)

Excitation wavelength λex	Fluorescence wavelength λem	Stokes shift λem − λex	Molecule
410	490	80	N=c1oc2ccc3ccccc3c2cc1-c1nc2ccccc2[nH]1 [Compound 17]
472	504	32	CCN(CC)c1ccc2cc(-c3nc4ccc(C)cc4o3)c(=O)oc2c1 [Compound 27]
410	540	130	O=c1oc2ccc3ccccc3c2cc1-c1nc2ccccc2[nH]1 [Compound 28]

The next lines start with the molecule.

Molecule	Excitation wavelength λex	Fluorescence wavelength λem	Stokes shift λem − λex
CCN(CC)c1ccc2cc(-c3nc4ccccc4s3)c(=O)oc2c1 [Compound 15]	469	555	86
COc1ccc2cc(-c3nc4ccccc4[nH]3)c(=N)oc2c1 [Compound 16]	380	470	90
CCN(CC)c1ccc2cc(-c3nc4ccccc4[nH]3)c(=N)oc2c1 [Compound 18]	464	514	50
COc1ccc2cc(-c3nc4ccccc4[nH]3)c(=O)oc2c1 [Compound 20]	380	470	90
COc1cccc2cc(-c3nc4ccccc4[nH]3)c(=O)oc12 [Compound 22]	360	510	150
CCN(CC)c1ccc2cc(-c3nc4cc(Cl)ccc4o3)c(=O)oc2c1 [Compound 23]	422	476	54
Cc1ccc2oc(=O)c(-c3nc4ccccc4[nH]3)cc2c1 [Compound 24]	380	490	110
CCCN(CCC)c1ccc2cc(-c3nc4ccccc4[nH]3)c(=O)oc2c1 [Compound 25]	463	509	46

System: mouse brain
Test: Labeling of mouse brain after intraperitoneal administration
Assay type: in vivo
Conditions: 3-month-old B10 mouse, 0.2 ml single intraperitoneal dose, brain collected after one hour
Method: The compound (13) is added to an equimolar solution of NaOH so that a concentration of 10 mg/ml is reached, and the resulting mixture is centrifuged at 14 krpm for five minutes to obtain a supernatant. Then, 0.2 ml of the supernatant thus obtained is intraperitoneally administered to a 3-month-old B10 mouse in a single dose. After one hour, the animal thus treated is sacrificed by diethyl ether anesthesia, and the brain is collected. The brain thus removed is embedded in an OCT compound, and then frozen in isopentane cooled with liquid nitrogen. The resulting brain was sliced into thin sections of approximately 10 μm in thickness in a cryostat cooled to −20° C. The thin sections were then placed on a slide glass and dried, whereby a section of the brain tissue was prepared. The brain tissue section thus prepared was observed under a confocal microscope (manufactured by Carl Zeiss, Inc., Pascal Exciter).
After one hour, the animal thus treated is sacrificed by diethyl ether anesthesia, and the brain is collected. The brain thus removed is embedded in an OCT compound, and then frozen in isopentane cooled with liquid nitrogen. The resulting brain was sliced into thin sections of approximately 10 μm in thickness in a cryostat cooled to −20° C. The thin sections were then placed on a slide glass and dried, whereby a section of the brain tissue was prepared. […]

Molecule	Labeling property in a mouse brain by intraperitoneal administration
CCN1c2ccc(/C=C3/SC(=S)N(CCC(=O)O)C3=O)cc2C2CCCC21 (stereo not drawn) [(13)]	confirmed to exert a labeling property

System: central nervous system tissues of juvenile zebrafish (7 dpf)
Test: Labeling the central nervous system tissue of live 7 dpf juvenile zebrafish by immersion in labeling solution
Conditions: 7 dpf juvenile zebrafish, labeling solution 1 μg/mL, one hour
Method: Subsequently, the labeling solution 1 in the well was removed and replaced by 1 mL of distilled water. This operation was repeated three times. Then, juvenile zebrafish was removed from the well and embedded in 5% low melting point agarose gel on a slide glass so as to restrict movement, and the state of labeling in the central nervous system tissues were observed from the lateral side of zebrafish by a fluorescence stereomicroscope (manufactured by Leica Microsystems, MZ16FA). Also, the brain nerve tissues were observed from the parietal region by a confocal microscope (manufactured by Carl Zeiss, Inc., Pascal Exciter).

Molecule	Labeling property
Cn1c(=O)cc2c3c(c(NC4CCCCC4)ccc31)C(=O)c1ccccc1-2 [(8)]	++
Cn1c(=O)cc2c3c(c(NCc4ccccc4)ccc31)C(=O)c1ccccc1-2 [(9)]	++
CCN(CC)c1ccc2cc3c(oc2c1)c(C#N)c(=N)n1c2ccccc2nc31 [(10)]	++
CCN(CC)c1ccc2cc3c(oc2c1)c(C#N)c(=O)n1c2ccccc2nc31 [(11)]	+
CCCCNc1ccc2c3c(cccc13)C(=O)N(CCCC)C2=O [(12)]	++
CCN1c2ccc(/C=C3/SC(=S)N(CCC(=O)O)C3=O)cc2C2CCCC21 (stereo not drawn) [(13)]	++
CCN1C(=S)N(c2ccccc2)C(=O)/C1=C/C=C1/Sc2ccccc2N1CC [(14)]	++
O=C1OC2(c3ccc(O)cc3Oc3cc(O)ccc32)c2ccccc21 [Fluorescein, reference compound]	−

Same assay, conditions: 7 dpf juvenile zebrafish, labeling solution 1 μg/mL, one hour (Table 3)

Molecule	Fluorescence sensitivity
O=C1c2ccccc2-c2cc(=O)n(C3CCCCC3)c3ccc(NC4CCCCC4)c1c23 [Compound 29]	+
CCCCn1c(=O)cc2c3c(c(NC4CCCCC4)ccc31)C(=O)c1ccccc1-2 [Compound 30]	+
CCCCC(CC)CNc1ccc2c3c(cc(=O)n2CCCC)-c2ccccc2C(=O)c13 (stereo not drawn) [Compound 31]	+
CCCCn1c(=O)cc2c3c(c(NCCC4=CCCCC4)ccc31)C(=O)c1ccccc1-2 [Compound 32]	+
CCCCOCCCNc1ccc2c3c(cc(=O)n2CCCC)-c2ccccc2C(=O)c13 [Compound 33]	+
O=C(O)CCN1C(=O)/C(=C\c2cc(Br)c3c(c2)C2CCCC2N3c2ccc(Br)cc2)SC1=S (stereo not drawn) [Compound 34]	+
COc1ccc(N2c3ccc(/C=C4/SC(=S)N(CCC(=O)O)C4=O)cc3C3CCCC32)cc1 (stereo not drawn) [Compound 35]	++
O=C(O)CCN1C(=O)/C(=C\c2ccc3c(c2)C2CCCC2N3Cc2ccccc2)SC1=S (stereo not drawn) [Compound 36]	+
O=C(O)CCN1C(=O)/C(=C\c2ccc3c(c2)C2CCCC2N3c2ccccc2)SC1=S (stereo not drawn) [Compound 37]	++
COc1ccc2cc(N3c4ccc(/C=C5/SC(=S)N(CCC(=O)O)C5=O)cc4C4CCCC43)ccc2c1 (stereo not drawn) [Compound 38]	+
CN1c2ccc(/C=C3/SC(=S)N(CCC(=O)O)C3=O)cc2C2CCCC21 (stereo not drawn) [Compound 39]	++
CCN1c2ccc(/C=C3/SC(=S)N(CCC(=O)O)C3=O)cc2CC1C (stereo not drawn) [Compound 40]	++
CCn1c2ccccc2c2cc(/C=C3/SC(=S)N(CCC(=O)O)C3=O)ccc21 [Compound 41]	+
CCCN1c2ccc(/C=C3/SC(=S)N(CCC(=O)O)C3=O)cc2C2CCCC21 (stereo not drawn) [Compound 42]	++
CCN1c2ccc(/C=C/C=C3/SC(=S)N(CCC(=O)O)C3=O)cc2C2CCCC21 (stereo not drawn) [Compound 43]	++
CSc1ccc(N2c3ccc(/C=C4/SC(=S)N(CCC(=O)O)C4=O)cc3C3CCCC32)cc1 (stereo not drawn) [Compound 44]	++

Same assay, conditions: 7 dpf juvenile zebrafish, labeling solution 45 with 3 μg/mL dye compound, one hour (Table 3)

Molecule	Fluorescence sensitivity
CCN1CCc2cc(/C=C3/SC(=S)N(CCC(=O)O)C3=O)ccc21 [Compound 45]	+

Same assay, conditions: 7 dpf juvenile zebrafish, one hour, fluorescence stereomicroscope and confocal microscope

Molecule	State of labeling of optic nerve, optic tract, superior colliculus (optic tectum), pituitary gland, tectospinal (tectobulbar) tract and reticular formation
Cn1c(=O)cc2c3c(c(NC4CCCCC4)ccc31)C(=O)c1ccccc1-2 [(8)]	intensely labeled

Same assay, conditions: juvenile zebrafish, labeling solution 1 μg/mL, one hour (Table 2)

Molecule	Fluorescence sensitivity	Labeling property
CCN(CC)c1ccc2cc(-c3nc4ccccc4s3)c(=O)oc2c1 [Compound 15]	++	++
COc1ccc2cc(-c3nc4ccccc4[nH]3)c(=N)oc2c1 [Compound 16]	+	+
N=c1oc2ccc3ccccc3c2cc1-c1nc2ccccc2[nH]1 [Compound 17]	+	+
CCN(CC)c1ccc2cc(-c3nc4ccccc4[nH]3)c(=N)oc2c1 [Compound 18]	++	++
COc1ccc2cc(-c3nc4ccccc4[nH]3)c(=O)oc2c1 [Compound 20]	+	+
COc1cccc2cc(-c3nc4ccccc4[nH]3)c(=O)oc12 [Compound 22]	+	+
CCN(CC)c1ccc2cc(-c3nc4cc(Cl)ccc4o3)c(=O)oc2c1 [Compound 23]	+	++
Cc1ccc2oc(=O)c(-c3nc4ccccc4[nH]3)cc2c1 [Compound 24]	+	+
CCCN(CCC)c1ccc2cc(-c3nc4ccccc4[nH]3)c(=O)oc2c1 [Compound 25]	++	++
CCN(CC)c1ccc2cc(-c3nc4ccc(C)cc4o3)c(=O)oc2c1 [Compound 27]	++	++
O=c1oc2ccc3ccccc3c2cc1-c1nc2ccccc2[nH]1 [Compound 28]	+	+

System: mouse brain tissue section
Test: Labeling of a mouse brain tissue section, confocal microscope
Conditions: 3-month-old B10 mouse, 10 μm frozen section, 1 ug/mL in PBS, incubation one hour
Method: (§1) A 3-month-old B10 mouse was sacrificed by diethyl ether anesthesia, and the brain is collected. The brain thus removed is embedded in an OCT compound, and then frozen in isopentane cooled with liquid nitrogen. The resulting brain was sliced into thin sections of approximately 10 μm in thickness in a cryostat cooled to −20° C. The thin sections were then placed on a slide glass and dried, whereby a section of the brain tissue was prepared. To the section of […] tissue thus prepared, a 1 ug/mL solution of the compound (13) in PBS was added, followed by incubation for one hour. After one hour, the slide glass was washed with PBST (PBS containing 0.2% Triton-X100) three times, and then sealed with a cover glass. Upon observation of the slide glass by a confocal microscope (manufactured by Carl Zeiss, Inc., Pascal
as §1, with “(27)” for “(13)”, “After one hour, the slide glass was washed with PBST (PBS containing 0.2% Triton-X100) three times, and then sealed with a cover glass. Upon observation of the slide glass by a confocal microscope (manufactured by Carl Zeiss, Inc., Pascal” left out

Molecule	Labeling property in a mouse brain tissue section
CCN1c2ccc(/C=C3/SC(=S)N(CCC(=O)O)C3=O)cc2C2CCCC21 (stereo not drawn) [(13)]	confirmed to exert a labeling property
CCN(CC)c1ccc2cc(-c3nc4ccc(C)cc4o3)c(=O)oc2c1 [Compound 27]	confirmed to exert a labeling property

System: brain of juvenile zebrafish
Test: not given
Conditions: according to Patent Literature 3; cited from earlier work

Molecule	Migration of administered dye into the brain confirmed up to
Cc1cc(-c2ccc(/N=N/c3ccc4c(S(=O)(=O)O)cc(S(=O)(=O)O)c(N)c4c3O)c(C)c2)ccc1/N=N/c1ccc2c(S(=O)(=O)O)cc(S(=O)(=O)O)c(N)c2c1O [Evans blue]	up to 4 dpf
O=C1OC2(c3ccc(O)cc3Oc3cc(O)ccc32)c2ccccc21 [Fluorescein, reference compound]	≤ 8 dpf
rhodamine 123	≤ 5 dpf
